Key:
[1] = Inhibition of Malassezia globosa recombinant beta-carbonic anhydrase preincubated for 15 mins prior to testing measured for 10 to 100 secs by phenol red-based stopped-flow CO2 hydration assay
[2] = molecular target: Carbonic anhydrase 2 (Homo sapiens, UniProt P00918); assay: Inhibition of human recombinant carbonic anhydrase 2 preincubated for 15 mins prior to testing measured for 10 to 100 secs by phenol red-based stopped-flow CO2 hydration assay
[3] = molecular target: Carbonic anhydrase 1 (Homo sapiens, UniProt P00915); assay: Inhibition of human recombinant carbonic anhydrase 1 preincubated for 15 mins prior to testing measured for 10 to 100 secs by phenol red-based stopped-flow CO2 hydration assay
Sequence of Carbonic anhydrase 1 (P00915 whole entry): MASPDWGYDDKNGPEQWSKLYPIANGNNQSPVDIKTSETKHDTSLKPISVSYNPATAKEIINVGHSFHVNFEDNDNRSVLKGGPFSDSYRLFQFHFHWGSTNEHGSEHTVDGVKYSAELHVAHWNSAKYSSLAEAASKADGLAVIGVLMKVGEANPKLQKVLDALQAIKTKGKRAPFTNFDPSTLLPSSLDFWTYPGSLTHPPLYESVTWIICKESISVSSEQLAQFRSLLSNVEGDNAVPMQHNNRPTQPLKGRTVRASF

Row | Structure (SMILES) | Ki [1] | Ki [2] | Ki [3]
1 | Nc1cccc(O)c1 [3-AMINOPHENOL] | 3.9 µM |  | 
2 | CC(=O)Nc1ccc(O)cc1 [ACETAMINOPHEN] | 2.5 µM |  | 
3 | Nc1cc(O)ccc1Cl | 44.9 µM |  | 
4 | Oc1cc(F)ccc1F | 29.7 µM |  | 
5 | Oc1ccccc1 [PHENOL] | 65 µM |  | 
6 | O=C(O)c1ccccc1O [SALICYLIC ACID] | 6.6 µM |  | 
7 | CC(=O)Nc1nnc(S(N)(=O)=O)s1 [ACETAZOLAMIDE] | 74 µM |  | 
8 | Oc1cc(F)cc(F)c1 | 8.8 µM |  | 
9 | Oc1c(F)cc(F)cc1F | 36.4 µM | > 100 µM | > 100 µM
10 | O=C(O)c1c(O)cccc1O | 5.9 µM |  | 
11 | Oc1ccc(O)c(O)c1 | 7.4 µM | > 100 µM | > 100 µM
12 | Nc1ccc(O)cc1 [4-AMINOPHENOL] | 32 µM |  | 
13 | Nc1ccc(O)c(Cl)c1 | > 100 µM | 57.5 µM | 57.8 µM
14 | N#Cc1ccc(O)cc1 [4-CYANOPHENOL] | 0.7 µM |  | 

The next lines start with the values.

Row | Ki [1] | Ki [2] | Ki [3] | Structure (SMILES)
15 | 4.9 µM |  |  | O=C(O)c1ccc(O)cc1 [PARABEN]
16 | 7 µM |  |  | Oc1ccccc1O [CATECHOL]
17 | 6.3 µM |  |  | Oc1ccc(O)cc1 [HYDROQUINONE]
18 | 0.6 µM |  |  | O=C(O)/C=C/c1ccc(O)c(O)c1 [CAFFEIC ACID]
19 | 6.1 µM |  |  | Oc1cccc(O)c1 [RESORCINOL]
20 | 6.1 µM |  |  | OCc1ccc(O)cc1 [PARAHYDROXYBENZYL ALCOHOL]
21 | 4.5 µM |  |  | O=C(O)c1cc(O)ccc1O [GENTISIC ACID]
22 | 6.5 µM |  |  | O=C(O)c1ccc(O)c(O)c1 [PROTOCATECHUIC ACID]
23 | 3.3 µM |  |  | O=C(O)/C=C/c1ccc(O)cc1 [COUMARIC ACID]

Source: ChEMBL document CHEMBL4017449, “Inhibition of Malassezia globosa carbonic anhydrase with phenols” (Bioorg Med Chem, 2017)
